This note sets out measurements from patent US20220323599A1, “ANTI-BCMA ANTIBODY CONJUGATE, COMPOSITIONS COMPRISING THE SAME, AND METHODS OF MAKING AND USING THE SAME” (CELGENE CORPORATION, priority 2019, published 2022).

For the assay, the system named is MM.1S multiple myeloma cells. Kind of assay: Disseminated MM.1S multiple myeloma model in NSG mice. The assay is classed as in vivo. The source says: Female NOD severe combined immune deficient (SCID) gamma (NSG) mice 8-9 weeks of age were inoculated with 5×10^6 multiple myeloma MM.1S cells into the tail vein. Randomization by body weight and start of treatment was initiated 7 days post tumor inoculation. The treatment groups are outlined in Table 10. […] Groups 1-10 (n=6/group) were monitored for survival endpoint characterized by >20% body weight loss and clinical signs including lethargy, hind limb paralysis or moribundity. Groups 11-20 (n=3/group) were used for bone marrow harvest and analysis of tumor burden on day 28 post tumor cell inoculation. For all groups, body weights were monitored 1-2×/week.
Tumor burden was assessed and quantified by detection of hCD138 positive (hCD138+) cells in the bone marrow. Bone marrow cells from mouse femur and tibia were pooled and assessed for human CD138+ expression using the Alexa Fluor 647 mouse anti-human CD138 clone MI15 (BD Biosciences #562097) according to the manufacturer's protocol. […] Data was analyzed using Flowjo (Tree Star, Inc., Ashland, Oreg.).
Female NOD severe combined immune deficient (SCID) gamma (NSG) mice 9-12 weeks of age were inoculated with 5×10^6 multiple myeloma MM.1S cells into the tail vein. […] Body weights were monitored 1-2×/week. […]

`CC(C)C[C@H](NC(=O)[C@H](Cc1ccccc1)NC(=O)c1cnccn1)B(O)O` [Velcade, bortezomib] displayed a mean survival (Example 9, 0.8 mg/kg Velcade q7dx2 IP, vehicle 30.6 days) of 40.6 days.

Consider “Daratumumab: MM standard of care agent, clinical grade Daratumumab”, for which, under “Example 9, single agent at 3 or 10 mg/kg, single IP”, the “effect on survival compared to vehicle control” value is listed as “no significant effect on survival compared to vehicle control”.
